# Test results published in ChEMBL document CHEMBL3991601, “The target landscape of clinical kinase drugs” (Science, 2017).
# Structures can show the parent of a compound that is named as a salt. Active and inactive are the calls of the source. For most assays here, no stated cut-off is given here; in the data, actives have a measured Kd and inactives only a lower limit.
# Experiments:
# [1] = molecular target: T1, Serine/threonine-protein kinase A-Raf (Homo sapiens, UniProt P10398)
# T1 sequence (P10398 whole entry): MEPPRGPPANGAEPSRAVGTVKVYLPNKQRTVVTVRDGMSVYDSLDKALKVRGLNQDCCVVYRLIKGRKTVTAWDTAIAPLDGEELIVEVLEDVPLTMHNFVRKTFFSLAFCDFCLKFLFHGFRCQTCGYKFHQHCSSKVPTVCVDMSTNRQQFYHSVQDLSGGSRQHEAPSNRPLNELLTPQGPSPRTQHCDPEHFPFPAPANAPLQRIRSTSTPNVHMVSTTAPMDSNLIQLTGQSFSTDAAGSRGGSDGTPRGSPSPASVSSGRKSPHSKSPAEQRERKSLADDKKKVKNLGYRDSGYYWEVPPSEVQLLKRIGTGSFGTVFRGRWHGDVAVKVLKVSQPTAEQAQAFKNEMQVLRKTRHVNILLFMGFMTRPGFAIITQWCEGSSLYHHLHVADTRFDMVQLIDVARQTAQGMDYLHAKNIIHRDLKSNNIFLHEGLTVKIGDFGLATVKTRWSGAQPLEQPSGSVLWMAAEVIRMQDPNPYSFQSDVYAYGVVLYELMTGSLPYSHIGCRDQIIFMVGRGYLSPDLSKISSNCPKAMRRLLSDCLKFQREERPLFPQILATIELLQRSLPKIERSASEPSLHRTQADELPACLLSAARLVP
# [2] = molecular target: Bone morphogenetic protein receptor type-1B (Homo sapiens, UniProt O00238)
# Chain of Bone morphogenetic protein receptor type-1B (O00238 whole entry): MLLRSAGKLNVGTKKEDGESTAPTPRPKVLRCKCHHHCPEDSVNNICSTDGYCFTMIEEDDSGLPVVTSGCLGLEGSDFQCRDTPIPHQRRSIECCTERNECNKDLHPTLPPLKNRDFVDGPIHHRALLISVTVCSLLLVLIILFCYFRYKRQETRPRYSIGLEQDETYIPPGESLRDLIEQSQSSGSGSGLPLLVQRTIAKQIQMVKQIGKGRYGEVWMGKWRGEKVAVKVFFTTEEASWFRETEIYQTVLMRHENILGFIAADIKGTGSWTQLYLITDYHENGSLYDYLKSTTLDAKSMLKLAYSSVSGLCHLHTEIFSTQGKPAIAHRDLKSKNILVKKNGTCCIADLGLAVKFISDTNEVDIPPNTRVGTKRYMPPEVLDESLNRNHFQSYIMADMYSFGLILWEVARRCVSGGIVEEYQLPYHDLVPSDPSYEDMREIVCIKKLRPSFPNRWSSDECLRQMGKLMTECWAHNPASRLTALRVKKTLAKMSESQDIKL
# [3] = molecular target: T2, Bone morphogenetic protein receptor type-2 (Homo sapiens, UniProt Q13873)
# T2 sequence (Q13873 whole entry): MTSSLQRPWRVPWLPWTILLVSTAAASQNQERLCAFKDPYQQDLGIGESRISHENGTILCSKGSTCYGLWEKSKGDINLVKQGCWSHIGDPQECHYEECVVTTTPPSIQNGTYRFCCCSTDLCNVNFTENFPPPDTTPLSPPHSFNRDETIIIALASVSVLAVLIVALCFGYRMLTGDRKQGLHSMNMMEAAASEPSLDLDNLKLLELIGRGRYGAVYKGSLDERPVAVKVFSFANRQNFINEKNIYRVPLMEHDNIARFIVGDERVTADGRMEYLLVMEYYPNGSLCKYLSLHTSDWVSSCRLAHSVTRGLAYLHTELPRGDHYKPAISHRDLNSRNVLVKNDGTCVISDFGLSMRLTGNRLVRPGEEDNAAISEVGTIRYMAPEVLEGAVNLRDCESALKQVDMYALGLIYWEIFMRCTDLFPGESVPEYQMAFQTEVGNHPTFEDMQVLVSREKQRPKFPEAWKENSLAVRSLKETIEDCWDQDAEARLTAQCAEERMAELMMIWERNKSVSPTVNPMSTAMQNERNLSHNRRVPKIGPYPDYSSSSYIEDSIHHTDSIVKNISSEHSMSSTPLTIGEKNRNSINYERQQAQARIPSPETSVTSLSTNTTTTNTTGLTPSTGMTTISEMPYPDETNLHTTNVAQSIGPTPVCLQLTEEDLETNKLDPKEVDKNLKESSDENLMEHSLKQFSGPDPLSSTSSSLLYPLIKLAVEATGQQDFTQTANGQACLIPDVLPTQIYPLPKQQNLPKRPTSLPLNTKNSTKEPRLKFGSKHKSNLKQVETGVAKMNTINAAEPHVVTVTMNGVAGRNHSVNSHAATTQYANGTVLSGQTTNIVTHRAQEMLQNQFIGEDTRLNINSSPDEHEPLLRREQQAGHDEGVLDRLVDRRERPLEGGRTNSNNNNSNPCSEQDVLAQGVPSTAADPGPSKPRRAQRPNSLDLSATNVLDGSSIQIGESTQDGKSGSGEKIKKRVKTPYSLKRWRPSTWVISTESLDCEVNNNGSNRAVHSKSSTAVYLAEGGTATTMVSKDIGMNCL
# [4] = molecular target: Tyrosine-protein kinase BTK (Homo sapiens, UniProt Q06187)
# Chain of Tyrosine-protein kinase BTK (Q06187 whole entry, canonical isoform): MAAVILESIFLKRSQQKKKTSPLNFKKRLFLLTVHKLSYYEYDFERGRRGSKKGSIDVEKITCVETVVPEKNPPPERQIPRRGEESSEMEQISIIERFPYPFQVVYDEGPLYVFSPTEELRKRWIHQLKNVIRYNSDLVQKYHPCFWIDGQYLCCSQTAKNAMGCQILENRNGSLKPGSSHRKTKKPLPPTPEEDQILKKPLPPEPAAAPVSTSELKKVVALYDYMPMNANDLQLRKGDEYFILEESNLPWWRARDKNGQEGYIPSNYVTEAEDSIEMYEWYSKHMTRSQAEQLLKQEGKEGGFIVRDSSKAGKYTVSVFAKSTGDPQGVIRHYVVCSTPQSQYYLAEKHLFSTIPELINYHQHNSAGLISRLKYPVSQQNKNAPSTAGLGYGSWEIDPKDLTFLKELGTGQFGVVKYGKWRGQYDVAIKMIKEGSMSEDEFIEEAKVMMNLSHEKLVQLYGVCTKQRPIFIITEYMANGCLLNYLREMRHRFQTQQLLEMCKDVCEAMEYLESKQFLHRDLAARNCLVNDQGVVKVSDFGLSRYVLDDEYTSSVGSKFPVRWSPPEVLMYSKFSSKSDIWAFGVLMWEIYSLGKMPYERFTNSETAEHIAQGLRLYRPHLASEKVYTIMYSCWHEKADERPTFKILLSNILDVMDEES
# [5] = molecular target: Casein kinase I isoform delta (Homo sapiens, UniProt P48730)
# Chain of Casein kinase I isoform delta (P48730 whole entry, canonical isoform): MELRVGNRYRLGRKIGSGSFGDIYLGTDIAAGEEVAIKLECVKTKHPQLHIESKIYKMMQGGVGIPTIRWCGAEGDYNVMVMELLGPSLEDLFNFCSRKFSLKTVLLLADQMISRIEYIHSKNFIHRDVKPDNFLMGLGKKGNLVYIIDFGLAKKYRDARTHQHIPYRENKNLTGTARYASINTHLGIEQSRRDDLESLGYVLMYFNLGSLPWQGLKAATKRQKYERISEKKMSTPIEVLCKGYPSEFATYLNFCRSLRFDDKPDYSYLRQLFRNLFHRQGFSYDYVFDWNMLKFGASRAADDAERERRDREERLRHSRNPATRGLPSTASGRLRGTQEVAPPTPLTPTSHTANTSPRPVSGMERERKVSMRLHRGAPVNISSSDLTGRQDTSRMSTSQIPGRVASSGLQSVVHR
# [6] = molecular target: Serine/threonine-protein kinase/endoribonuclease IRE1 (Homo sapiens, UniProt O75460)
# Chain of Serine/threonine-protein kinase/endoribonuclease IRE1 (O75460 whole entry): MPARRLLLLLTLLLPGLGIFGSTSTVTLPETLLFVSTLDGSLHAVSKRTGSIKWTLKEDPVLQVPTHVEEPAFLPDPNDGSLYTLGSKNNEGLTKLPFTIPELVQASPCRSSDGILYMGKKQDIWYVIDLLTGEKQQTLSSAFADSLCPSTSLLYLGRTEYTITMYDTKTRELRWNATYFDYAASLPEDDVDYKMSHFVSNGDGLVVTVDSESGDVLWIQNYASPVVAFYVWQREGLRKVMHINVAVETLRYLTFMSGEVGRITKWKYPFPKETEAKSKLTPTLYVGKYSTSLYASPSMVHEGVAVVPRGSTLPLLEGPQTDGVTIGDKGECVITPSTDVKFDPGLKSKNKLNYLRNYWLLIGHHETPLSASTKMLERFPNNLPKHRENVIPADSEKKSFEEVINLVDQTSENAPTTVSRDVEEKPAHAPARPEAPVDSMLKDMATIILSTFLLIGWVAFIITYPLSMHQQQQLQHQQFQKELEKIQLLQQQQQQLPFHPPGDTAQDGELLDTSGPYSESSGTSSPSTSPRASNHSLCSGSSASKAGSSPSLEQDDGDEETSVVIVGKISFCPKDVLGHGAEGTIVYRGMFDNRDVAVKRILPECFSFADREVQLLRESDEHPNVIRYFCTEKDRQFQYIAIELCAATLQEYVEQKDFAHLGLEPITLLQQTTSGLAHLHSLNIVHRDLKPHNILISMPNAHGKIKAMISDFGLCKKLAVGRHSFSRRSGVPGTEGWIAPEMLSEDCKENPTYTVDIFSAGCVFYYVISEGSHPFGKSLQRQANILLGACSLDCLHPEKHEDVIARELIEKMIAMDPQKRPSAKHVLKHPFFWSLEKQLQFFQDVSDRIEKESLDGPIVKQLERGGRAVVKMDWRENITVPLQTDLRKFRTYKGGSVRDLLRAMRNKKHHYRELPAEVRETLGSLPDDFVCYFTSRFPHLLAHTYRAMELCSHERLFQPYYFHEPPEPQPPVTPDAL
# [7] = molecular target: Mitogen-activated protein kinase 14 (Homo sapiens, UniProt Q16539)
# Chain of Mitogen-activated protein kinase 14 (Q16539 whole entry): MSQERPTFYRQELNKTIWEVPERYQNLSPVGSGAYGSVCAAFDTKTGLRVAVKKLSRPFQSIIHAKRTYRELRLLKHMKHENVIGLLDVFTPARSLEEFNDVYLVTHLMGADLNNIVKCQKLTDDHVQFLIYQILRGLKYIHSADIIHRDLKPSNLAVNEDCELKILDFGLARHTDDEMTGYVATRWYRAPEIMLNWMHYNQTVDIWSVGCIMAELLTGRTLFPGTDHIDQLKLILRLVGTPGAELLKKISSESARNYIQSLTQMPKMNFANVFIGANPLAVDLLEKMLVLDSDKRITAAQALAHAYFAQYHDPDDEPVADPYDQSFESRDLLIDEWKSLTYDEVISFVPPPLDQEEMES
# [8] = molecular target: T3, Tyrosine--tRNA ligase, cytoplasmic (Homo sapiens, UniProt P54577)
# T3 sequence (P54577 whole entry): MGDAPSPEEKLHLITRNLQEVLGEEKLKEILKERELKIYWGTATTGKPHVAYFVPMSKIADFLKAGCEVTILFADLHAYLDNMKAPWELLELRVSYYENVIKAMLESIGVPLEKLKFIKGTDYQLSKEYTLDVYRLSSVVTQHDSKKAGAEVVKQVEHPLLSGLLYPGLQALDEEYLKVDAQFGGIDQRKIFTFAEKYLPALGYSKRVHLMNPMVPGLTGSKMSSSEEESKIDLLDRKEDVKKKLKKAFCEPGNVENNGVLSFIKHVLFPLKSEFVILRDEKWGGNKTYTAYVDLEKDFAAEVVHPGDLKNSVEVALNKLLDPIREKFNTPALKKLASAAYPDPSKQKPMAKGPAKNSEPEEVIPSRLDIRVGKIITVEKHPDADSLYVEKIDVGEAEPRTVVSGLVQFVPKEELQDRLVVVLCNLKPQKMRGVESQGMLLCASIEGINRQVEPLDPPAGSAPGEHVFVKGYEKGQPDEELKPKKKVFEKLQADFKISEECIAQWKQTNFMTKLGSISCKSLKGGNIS
SMILES,Kd [1],Kd [2],Kd [3],Kd [4],Kd [5],Kd [6],Kd [7],Kd [8]
C[C@@H](Oc1cc(C(=O)Nc2ccc(C(=O)N3CCN(C)CC3)cc2)nnc1N)c1c(Cl)ccc(F)c1Cl,> 30 µM (inactive),> 30 µM (inactive),> 30 µM (inactive),> 30 µM (inactive),> 30 µM (inactive),> 30 µM (inactive),> 30 µM (inactive),> 30 µM (inactive)
C[C@H]1CNCCCN1S(=O)(=O)c1cccc2cncc(F)c12,> 30 µM (inactive),> 30 µM (inactive),> 30 µM (inactive),> 30 µM (inactive),> 30 µM (inactive),> 30 µM (inactive),> 30 µM (inactive),–
CCNC(=O)C#Cc1ccc2c(c1)NC(=O)/C2=C(\Nc1ccc(CN(C)C)cc1)c1ccccc1,–,> 30 µM (inactive),> 30 µM (inactive),0.588 µM (active),> 30 µM (inactive),> 30 µM (inactive),> 30 µM (inactive),> 30 µM (inactive)
C=CC(=O)N1CCC[C@H](n2c(=O)n(-c3ccc(Oc4ccccc4)cc3)c3c(N)ncnc32)C1,–,> 30 µM (inactive),> 30 µM (inactive),0.004 µM (active),> 30 µM (inactive),> 30 µM (inactive),> 30 µM (inactive),> 30 µM (inactive)
Cc1nc2cc(-c3nn(C(C)C)c4ncnc(N)c34)ccc2o1,> 30 µM (inactive),0.123 µM (active),> 30 µM (inactive),> 30 µM (inactive),0.152 µM (active),> 30 µM (inactive),> 30 µM (inactive),> 30 µM (inactive)
COCc1c(-c2ccc(NC(=O)Nc3cc(C(F)(F)F)ccc3F)c(F)c2)c2c(N)ncnn2c1CN1CCOCC1,> 30 µM (inactive),> 30 µM (inactive),> 30 µM (inactive),> 30 µM (inactive),> 30 µM (inactive),> 30 µM (inactive),> 30 µM (inactive),> 30 µM (inactive)
Nc1ncnc2c1c(-c1cccc(OCc3ccccc3)c1)cn2[C@H]1C[C@@H](CN2CCC2)C1 [AEW-541],> 30 µM (inactive),1.44 µM (active),> 30 µM (inactive),> 30 µM (inactive),> 30 µM (inactive),> 30 µM (inactive),> 30 µM (inactive),> 30 µM (inactive)
Cc1nc(NC(=O)N2CCC[C@H]2C(N)=O)sc1-c1ccnc(C(C)(C)C(F)(F)F)c1 [ALPELISIB],> 30 µM (inactive),> 30 µM (inactive),> 30 µM (inactive),> 30 µM (inactive),> 30 µM (inactive),> 30 µM (inactive),> 30 µM (inactive),> 30 µM (inactive)
Cc1csc(-c2nnc(Nc3ccc(Oc4ncccc4-c4ccnc(N)n4)cc3)c3ccccc23)c1 [AMG-900],> 30 µM (inactive),> 30 µM (inactive),> 30 µM (inactive),> 30 µM (inactive),> 30 µM (inactive),> 30 µM (inactive),0.735 µM (active),> 30 µM (inactive)
O=C(Nc1c[nH]nc1-c1nc2cc(CN3CCOCC3)ccc2[nH]1)NC1CC1 [AT-9283],> 30 µM (inactive),0.021 µM (active),0.043 µM (active),0.537 µM (active),> 30 µM (inactive),> 30 µM (inactive),> 30 µM (inactive),> 30 µM (inactive)
C=CC(=O)Nc1cc2c(Nc3ccc(F)c(Cl)c3)ncnc2cc1C#CC(C)(C)N1CCN(C)CC1 [AV-412 FREE BASE],> 30 µM (inactive),> 30 µM (inactive),> 30 µM (inactive),0.345 µM (active),> 30 µM (inactive),> 30 µM (inactive),> 30 µM (inactive),> 30 µM (inactive)
COc1cc([C@@H]2c3cc4c(cc3[C@H](O)[C@H]3COC(=O)[C@@H]23)OCO4)cc(OC)c1OC [AXL-1717],> 30 µM (inactive),> 30 µM (inactive),> 30 µM (inactive),> 30 µM (inactive),> 30 µM (inactive),> 30 µM (inactive),> 30 µM (inactive),> 30 µM (inactive)
Cc1cc(C(=O)NOCCO)c(Nc2ccc(I)cc2F)n(C)c1=O [AZD-8330],> 30 µM (inactive),> 30 µM (inactive),> 30 µM (inactive),> 30 µM (inactive),> 30 µM (inactive),> 30 µM (inactive),> 30 µM (inactive),> 30 µM (inactive)
Cn1cnc2c(F)c(Nc3ccc(Br)cc3F)c(C(=O)NOCCO)cc21 [BINIMETINIB],> 30 µM (inactive),> 30 µM (inactive),> 30 µM (inactive),> 30 µM (inactive),> 30 µM (inactive),> 30 µM (inactive),> 30 µM (inactive),> 30 µM (inactive)
CCn1c(C(=O)N(C2CC2)C2CC2)cc2c3c(ncn3C)c(Nc3cc(C)n(C)n3)nc21 [BMS-911543],> 30 µM (inactive),> 30 µM (inactive),> 30 µM (inactive),> 30 µM (inactive),> 30 µM (inactive),> 30 µM (inactive),> 30 µM (inactive),> 30 µM (inactive)
COc1cc2ncnc(Oc3cccc(NC(=O)Nc4cc(C(C)(C)C(F)(F)F)on4)c3)c2cc1OC [CEP-32496],> 30 µM (inactive),> 30 µM (inactive),> 30 µM (inactive),> 30 µM (inactive),> 30 µM (inactive),> 30 µM (inactive),0.566 µM (active),> 30 µM (inactive)
CCS(=O)(=O)N1CCN(c2ccc(Nc3ncc(C(N)=O)c(NC4CC4)n3)cc2)CC1 [Cerdulatinib Hydrochloride],> 30 µM (inactive),> 30 µM (inactive),4.86 µM (active),> 30 µM (inactive),> 30 µM (inactive),> 30 µM (inactive),> 30 µM (inactive),–
Cc1nc2cc(-n3ncc(C(=O)c4cc5ccccc5[nH]4)c3N)ccc2[nH]1 [FGFR INHIBITOR DEBIO 1347],–,> 30 µM (inactive),> 30 µM (inactive),> 30 µM (inactive),> 30 µM (inactive),> 30 µM (inactive),> 30 µM (inactive),> 30 µM (inactive)
CC(C)c1cc(CNc2nc(Nc3cc(C4CC4)[nH]n3)cc(N3CCN(C)CC3)n2)on1 [XL-228],> 30 µM (inactive),–,> 30 µM (inactive),15.8 µM,> 30 µM (inactive),> 30 µM (inactive),> 30 µM (inactive),> 30 µM (inactive)
